“And” between values parts separate entries of the source, which are not always exact repeats. Equal entries are not always repeated.
Experiment: Dissolution of glyburide and glyburide solid dispersions in SIFsp, pH 6.8
Assay type: physicochemical
Parameters: drug released per capsule, Table 18C (quantity not headed): unit not given here
Details: for % Drug Released / Total Drug Released / Normalized Drug Released / drug released per capsule, Table 18C (quantity not headed): gelatin capsule
Procedure: All dissolution studies were performed on a Varian VK7025 Dissolution Apparatus equipped with a Varian VK8000 Fraction Collector
HPLC Methods for Evaluating Dissolution Aliquots:
Determination of Weight % Phenytoin, Carbamazepine, Glyburide, or Griseofulvin.
Mobile Phase: 55% acetonitrile/45% ammonium acetate buffer (2.6 g NH4OAc/L H2O with pH adjusted to pH˜5.25 with glacial acetic acid)
Column: Agilent Eclipse XDB-C8, 4.6 mm×150 mm×5 μm
Detection: UV 254 nm (UV 214 nm can also be used for phenytoin or carbamazepine, UV 291 nm can also be used for griseofulvin); typically five signals were selected from UV 214 nm, 222 nm, 254 nm, 287 nm, 291 nm, and/or 325 nm were collected for each sample.
Preparation of Glyburide Standard Curves
Glyburide reference standard from USP was dried as directed (106° C. for six hours), then approximately 20-25 mg of glyburide are added to a 25-mL volumetric flask and dissolved in DMSO or 55% acetonitrile/45% ammonium acetate, pH 5.25. The volume was diluted to 25 mL. A set of standard dilutions were prepared either using 10-mL volumetric flasks or Rainin automatic pipetmen.
Simulated Intestinal Fluid, without pancreatin, pH 6.8 (SIFsp, pH 6.8)—Added monobasic potassium phosphate (KH2PO4, 34 g) to a 4000-mL beaker. Added deionized/polished water (2000 mL) and mixed using a magnetic stir bar until the KH2PO4 is completely dissolved. Added 0.2 N sodium hydroxide (NaOH, 590 mL) and stirred. The pH was adjusted to pH 6.8±0.1 using 0.2 N NaOH. The sample was diluted with deionized/polished water to a final volume of 5000 mL.
The SIFsp media was heated to ˜45° C. in four 2000-mL Kimax bottles in an oven. The sample was degassed according to USP protocol by filtering through a 0.45 μm membrane filter (Pall, Supor-450, 0.45 μm, 90 mm, part # 60200, Lot # 43214) and stirring under vacuum for 5 minutes.
Dissolution Conditions #1.
Dissolution Conditions #2.
These Examples describe the dissolution of glyburide and glyburide solid Dispersions by evaluating the samples described in Examples 109-117. SlFsp, pH 6.8 media preperation was described in the Materials and Methods section.
Samples were transferred into gelatin capsules (Capsugel, size OCS, Lot #624282) using a manual single capsule filler. The weight of each capsule and the amount of sample added are found in Table 18 (Capsule Description).
These Examples describe the dissolution of glyburide and glyburide solid dispersions by evaluating the samples described in Examples 119-124. SIFsp, pH 6.8 media preperation was described in the Materials and Methods section.
Samples were transferred into gelatin capsules (Capsugel, size OCS, Lot # 624282) using a manual single capsule filler. The weight of each capsule and the amount of sample added are found in Tables 19 and 20 (Capsule Description).

Compound: COc1ccc(Cl)cc1C(=O)NCCc1ccc(S(=O)(=O)NC(=O)NC2CCCCC2)cc1 [Glyburide]
- Average % Released (10 min, average of capsules): 0.1549%
- Average % Released (10 min, average of vessels): 0.0373%
- % Drug Released (10 min, single vessel): 0.0362% and 0.0355% and 0.0403%
- Total Drug Released (15 min, single vessel): 0.0321 mg
- Average % Released (20 min, average of capsules): 1.0081%
- Average % Released (20 min, average of vessels): 0.2490%
- Normalized Drug Released (20 min): 0.7201 mg and 0.7299 mg
- drug released per capsule, Table 18C (quantity not headed) (20 min): 1.0149 and 1.0013
- % Drug Released (20 min, single vessel): 0.0355% and 0.2912% and 0.4202%
- Average % Released (30 min, average of capsules): 1.2315%
- Average % Released (30 min, average of vessels): 0.4372%
- Normalized Drug Released (30 min): 0.8728 mg and 0.8986 mg
- drug released per capsule, Table 18C (quantity not headed) (30 min): 1.2495 and 1.2136
- % Drug Released (30 min, single vessel): 0.4237% and 0.4293% and 0.4587%
- Total Drug Released (45 min, single vessel): 0.3834 mg and 0.3424 mg and 0.4071 mg
- Average % Released (60 min, average of capsules): 1.7763%
- Average % Released (60 min, average of vessels): 0.5522%
- Normalized Drug Released (60 min): 1.2890 mg and 1.2660 mg
- drug released per capsule, Table 18C (quantity not headed) (60 min): 1.7923 and 1.7603
- % Drug Released (60 min, single vessel): 0.4365% and 0.5720% and 0.6480%
- Total Drug Released (60 min, single vessel): 0.3950 mg and 0.4562 mg and 0.5752 mg
- Total Drug Released (90 min, single vessel): 0.6124 mg and 0.6166 mg and 0.7677 mg
- Average % Released (120 min, average of capsules): 2.1001%
- Average % Released (120 min, average of vessels): 0.7716%
- Normalized Drug Released (120 min): 1.5740 mg and 1.4468 mg
- drug released per capsule, Table 18C (quantity not headed) (120 min): 2.1886 and 2.0117
- % Drug Released (120 min, single vessel): 0.6767% and 0.7732% and 0.8649%
- Total Drug Released (120 min, single vessel): 0.7134 mg and 0.7222 mg and 0.8356 mg
- Total Drug Released (150 min, single vessel): 0.8270 mg and 0.8369 mg and 0.9711 mg
- Average % Released (180 min, average of capsules): 2.2533%
- Average % Released (180 min, average of vessels): 0.8784%
- Normalized Drug Released (180 min): 1.6724 mg and 1.5688 mg
- drug released per capsule, Table 18C (quantity not headed) (180 min): 2.3253 and 2.1813
- % Drug Released (180 min, single vessel): 0.7882% and 0.9056% and 0.9414%
- Total Drug Released (180 min, single vessel): 0.8919 mg and 0.9402 mg and 0.9572 mg
- Total Drug Released (210 min, single vessel): 0.9428 mg and 0.9956 mg and 1.4143 mg
- Average % Released (240 min, average of capsules): 2.3376%
- Average % Released (240 min, average of vessels): 1.0191%
- Normalized Drug Released (240 min): 1.7153 mg and 1.6471 mg
- Total Drug Released (240 min): 0.1934 mg and 0.1252 mg
- drug released per capsule, Table 18C (quantity not headed) (240 min): 2.3850 and 2.2902
- % Drug Released (240 min, single vessel): 0.9138% and 1.0495% and 1.0941%
- Total Drug Released (240 min, single vessel): 1.0358 mg and 1.0726 mg and 1.2243 mg
- Average % Released (300 min, average of capsules): 2.4335%
- Average % Released (300 min, average of vessels): 1.0810%
- Normalized Drug Released (300 min): 1.7802 mg and 1.7202 mg
- Total Drug Released (300 min): 0.2583 mg and 0.1982 mg
- drug released per capsule, Table 18C (quantity not headed) (300 min): 2.4752 and 2.3918
- % Drug Released (300 min, single vessel): 0.9855% and 1.1790% and 1.0784%
- Average % Released (360 min, average of capsules): 2.5067%
- Average % Released (360 min, average of vessels): 1.2945%
- Normalized Drug Released (360 min): 1.8465 mg and 1.7592 mg
- Total Drug Released (360 min): 0.3246 mg and 0.2373 mg
- drug released per capsule, Table 18C (quantity not headed) (360 min): 2.5674 and 2.4461
- % Drug Released (360 min, single vessel): 1.0417% and 1.2484% and 1.5934%
- Average % Released (450 min, average of capsules): 2.5617%
- Average % Released (450 min, average of vessels): 1.2896%
- Normalized Drug Released (450 min): 1.8424 mg
- Total Drug Released (450 min): 0.3205 mg
- drug released per capsule, Table 18C (quantity not headed) (450 min): 2.5617
- % Drug Released (450 min, single vessel): 1.1444% and 1.3449% and 1.3793%
